Tested on: HT-29 cells
Assay: In vitro anti-proliferative activity against HT-29 cells (intracellular ATP content, 72 h)
Assay type: cell-based
Settings: Homo sapiens, 72 h after dosing
Description: Biological Example 2. In Vitro Anti-Proliferative Activity of the Compounds of the Present Invention Against HT-29 Cells
HT-29 cells were seeded on a 384-well plate at 3000 cells/well. After overnight adherence culture, DMSO or the compounds serially 1:5-diluted from 5 μM were added. The viability of the cells was assessed 72 h after dosing by measuring the intracellular ATP content. The inhibition percentages of viable cells by the compounds were calculated by comparing with the DMSO group, and the IC50 values were also calculated.

Structure (SMILES) | IC50 [nM]
CN(C)c1ccc(C(=O)Nc2ccc(NS(=O)(=O)CCO)cc2N2CCC3(CC2)CC3)nc1N1CCC(F)(F)CC1 [Compound 705] | 146
CNc1ccc(C(=O)Nc2ccc(NS(=O)(=O)CCO)cc2N2CCC3(CC2)CC3)cc1N1CCC(F)(F)CC1 [Compound 704] | 64.2
CN(C)c1ccc(C(=O)Nc2ccc(NS(=O)(=O)CCO)cc2N2CCC3(CC2)CC3)cc1N1CCC(F)(F)CC1 [Compound 703] | 184
Nc1ccc(NC(=O)c2ccc(NS(=O)(=O)CCO)cc2N2CCC3(CC2)CC3)cc1N1CCC(F)(F)CC1 [Compound 701] | 76.7
O=C(Nc1ccc(OC(F)(F)F)c(N2CCC(F)(F)CC2)c1)c1ccc(NS(=O)(=O)CCO)cc1N1CCC2(CC1)CC2 [Compound 655] | 1170
COc1ccc(NC(=O)c2ccc(NS(=O)(=O)CCO)cc2N2CCC(C)(C(F)(F)F)CC2)nc1N1CCC(F)(F)CC1 [Compound 833] | 52.9
CNc1ccc(NC(=O)c2ccc(NS(=O)(=O)CCO)cc2N2CCC3(CC2)CC3)nc1N1CCC(F)(F)CC1 [Compound 643] | 34.2
COc1c(C)cc(NC(=O)c2ccc(NS(=O)(=O)CCO)cc2N2CCC3(CC2)CC3)nc1N1CCC(F)(F)CC1 [Compound 836] | 253

Tested on: HCT116 cells
Assay: In vitro anti-proliferative activity against HCT116 cells (intracellular ATP content, 72 h)
Assay type: cell-based
Settings: Homo sapiens, HCT-116, 72 h after dosing
Description: Biological Example 3. In Vitro Anti-Proliferative Activity of the Compounds of the Present Invention Against HCT116 Cells
HCT116 cells were seeded on a 384-well plate at 3000 cells/well. After overnight adherence culture, DMSO or the compounds serially 1:5-diluted from 5 μM were added. The viability of the cells was assessed 72 h after dosing by measuring the intracellular ATP content. The inhibition percentages of viable cells by the compounds were calculated by comparing with the DMSO group, and the IC 50 values were also calculated.

Structure (SMILES) | IC50 [nM]
CN(C)c1ccc(C(=O)Nc2ccc(NS(=O)(=O)CCO)cc2N2CCC3(CC2)CC3)nc1N1CCC(F)(F)CC1 [Compound 705] | > 10000
CNc1ccc(C(=O)Nc2ccc(NS(=O)(=O)CCO)cc2N2CCC3(CC2)CC3)cc1N1CCC(F)(F)CC1 [Compound 704] | > 10000
CN(C)c1ccc(C(=O)Nc2ccc(NS(=O)(=O)CCO)cc2N2CCC3(CC2)CC3)cc1N1CCC(F)(F)CC1 [Compound 703] | > 10000
Nc1ccc(NC(=O)c2ccc(NS(=O)(=O)CCO)cc2N2CCC3(CC2)CC3)cc1N1CCC(F)(F)CC1 [Compound 701] | > 10000
O=C(Nc1ccc(OC(F)(F)F)c(N2CCC(F)(F)CC2)c1)c1ccc(NS(=O)(=O)CCO)cc1N1CCC2(CC1)CC2 [Compound 655] | > 10000
COc1ccc(NC(=O)c2ccc(NS(=O)(=O)CCO)cc2N2CCC(C)(C(F)(F)F)CC2)nc1N1CCC(F)(F)CC1 [Compound 833] | > 10000
CNc1ccc(NC(=O)c2ccc(NS(=O)(=O)CCO)cc2N2CCC3(CC2)CC3)nc1N1CCC(F)(F)CC1 [Compound 643] | > 10000
COc1c(C)cc(NC(=O)c2ccc(NS(=O)(=O)CCO)cc2N2CCC3(CC2)CC3)nc1N1CCC(F)(F)CC1 [Compound 836] | > 10000

Biological target: T1, Recombinant human KIF18A (1-467His-tagged) protein (Homo sapiens, UniProt Q8NI77)
T1 construct: Recombinant human KIF18A (1-467His-tagged) protein; His; made in house
Assay: KIF18A enzyme assay (microtubule-stimulated ATPase activity, ADP-Glo)
Assay type: biochemical
Settings: 30 nM KIF18A, 75 μM ATP, 30 μg/mL pig microtubules; read-out: Inhibitory activity against KIF18A IC50
How it was run: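 Buffer 15 mM Tris pH 7.5, 10 mM MgCl2, 0.01% Pluronic F-68, 1 μM paclitaxel, 30 μg/mL pig microtubules; reactions at room temperature. IC50 from inhibition relative to DMSO.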

T1 sequence (Q8NI77 1-467): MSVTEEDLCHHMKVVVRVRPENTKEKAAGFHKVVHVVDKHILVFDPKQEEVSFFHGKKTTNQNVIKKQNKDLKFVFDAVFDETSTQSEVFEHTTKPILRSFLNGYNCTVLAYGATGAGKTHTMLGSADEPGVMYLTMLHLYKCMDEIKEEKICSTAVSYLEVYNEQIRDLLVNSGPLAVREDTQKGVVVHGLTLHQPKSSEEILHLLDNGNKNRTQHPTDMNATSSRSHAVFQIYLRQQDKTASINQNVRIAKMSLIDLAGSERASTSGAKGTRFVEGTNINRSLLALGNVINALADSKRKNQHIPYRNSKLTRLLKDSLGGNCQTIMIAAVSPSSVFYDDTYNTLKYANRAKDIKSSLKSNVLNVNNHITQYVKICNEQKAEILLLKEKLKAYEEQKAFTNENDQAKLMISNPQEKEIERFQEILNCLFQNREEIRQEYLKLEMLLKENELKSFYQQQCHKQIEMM
T1 sequence (P02550 whole entry partner): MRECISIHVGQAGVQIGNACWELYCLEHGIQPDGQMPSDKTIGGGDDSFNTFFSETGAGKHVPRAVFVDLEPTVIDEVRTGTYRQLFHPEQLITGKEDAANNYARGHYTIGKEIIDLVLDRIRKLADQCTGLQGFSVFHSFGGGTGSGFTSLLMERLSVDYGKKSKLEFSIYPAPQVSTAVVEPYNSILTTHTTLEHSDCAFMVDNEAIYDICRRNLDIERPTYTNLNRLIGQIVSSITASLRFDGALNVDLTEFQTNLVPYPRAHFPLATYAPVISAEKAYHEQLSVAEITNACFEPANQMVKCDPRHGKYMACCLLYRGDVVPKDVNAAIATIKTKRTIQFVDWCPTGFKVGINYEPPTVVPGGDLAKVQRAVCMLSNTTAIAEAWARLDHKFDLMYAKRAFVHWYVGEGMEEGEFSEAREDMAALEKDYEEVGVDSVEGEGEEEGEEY
T1 sequence (P02554 whole entry partner): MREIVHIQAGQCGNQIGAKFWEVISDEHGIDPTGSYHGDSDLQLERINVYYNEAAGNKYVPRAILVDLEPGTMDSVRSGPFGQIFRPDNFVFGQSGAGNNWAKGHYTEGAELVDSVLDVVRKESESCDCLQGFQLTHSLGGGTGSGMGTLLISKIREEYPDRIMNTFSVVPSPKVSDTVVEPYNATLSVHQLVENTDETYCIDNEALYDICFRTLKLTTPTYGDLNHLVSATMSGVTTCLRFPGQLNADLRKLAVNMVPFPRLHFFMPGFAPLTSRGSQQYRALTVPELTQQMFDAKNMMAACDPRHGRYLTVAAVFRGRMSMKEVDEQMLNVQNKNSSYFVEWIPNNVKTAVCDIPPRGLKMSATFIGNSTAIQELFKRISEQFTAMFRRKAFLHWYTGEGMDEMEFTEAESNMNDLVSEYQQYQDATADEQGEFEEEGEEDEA

Structure (SMILES) | IC50 [nM]
C[C@@H](CO)NS(=O)(=O)c1cc(N2CCC3(CC2)CC3)c(C(=O)Nc2ccc([N+](=O)[O-])c(N3CCC(F)(F)CC3)c2)cn1 [Compound 125] | ≤ 100
O=C(Nc1ccc(OCF)c(N2CCC(F)(F)CC2)n1)c1ccc(S(=O)(=O)NCCO)cc1N1CCC2(CC1)CC2 [Compound 433] | ≤ 100
O=C(Nc1ccc(OCF)c(N2CCC(F)CC2)c1)c1ccc(NS(=O)(=O)CCO)cc1N1CCC2(CC1)CC2 [Compound 393] | ≤ 100
O=C(Nc1ccc(S(=O)(=O)NCCO)cc1N1CCC2(CC1)CC2)c1ccc(OCF)c(N2CCC3(CC3)C2)n1 [Compound 566] | 100 to 500
O=C(Nc1ccc([N+](=O)[O-])c(N2CCOCC2)n1)c1ccc(NS(=O)(=O)CCO)cc1N1CCC2(CC1)CC2 [Compound 76] | ≤ 100
C[C@@H]1CN(c2cc(C(=O)Nc3ccc(NS(=O)(=O)[C@H](C)CO)cc3N3CCC4(CC3)CC4)ccc2OCF)CCO1 [Compound 528] | ≤ 100
C[C@@H]1CN(c2nc(C(=O)Nc3ccc(NS(=O)(=O)[C@H](C)CO)cc3N3CCC4(CC3)CC4)ccc2[N+](=O)[O-])CCO1 [Compound 176] | ≤ 100
O=C(Nc1cnc(S(=O)(=O)NCCO)cc1N1CCC2(CC1)CC2)c1ccc([N+](=O)[O-])c(N2CCOCC2)n1 [Compound 252] | 100 to 500
COc1ccc(C(=O)Nc2ccc(S(=O)(=O)NCCO)cc2N2CCC3(CC2)CC3)nc1N1CCOCC1 [Compound 348] | ≤ 100
CSc1ccc(NC(=O)c2cnc(NS(=O)(=O)CCO)cc2N2CCC3(CC2)CC3)nc1OC1CCC1 [Compound 631] | ≤ 100
COc1ccc(NC(=O)c2cnc(S(=O)(=O)N[C@@H](C)CO)cc2N2CCC3(CC2)CC3)nc1N1CCC(F)(F)CC1 [Compound 317] | ≤ 100
C[C@H](CO)S(=O)(=O)Nc1cc(N2CCC3(CC2)CC3)c(C(=O)Nc2ccc(OCF)c(N3CCC(F)(F)CC3)c2)cn1 [Compound 462] | ≤ 100
O=C(Nc1ccc(NS(=O)(=O)CCO)cc1N1CCC2(CC1)CC2)c1ccc(OCF)c(OCCC(F)(F)F)c1 [Compound 517] | ≤ 100
O=C(Nc1ccc(OCF)c(N2CCC(F)CC2)n1)c1cnc(NS(=O)(=O)CCO)cc1N1CCC2(CC1)CC2 [Compound 489] | ≤ 100
C[C@H]1CN(c2nc(C(=O)Nc3ccc(NS(=O)(=O)CCO)cc3N3CCC4(CC3)CC4)ccc2OCF)CCO1 [Compound 547] | ≤ 100
C[C@H](CO)NS(=O)(=O)c1cc(N2CCC3(CC2)CC3)c(C(=O)Nc2ccc(OCF)c(N3CCC(F)(F)CC3)c2)cn1 [Compound 478] | ≤ 100
CC(C)(CO)Nc1nc(NC(=O)c2cnc(S(=O)(=O)NCCO)cc2N2CCC3(CC2)CC3)ccc1[N+](=O)[O-] [Compound 155] | ≤ 100
C[C@H]1CN(c2nc(NC(=O)c3cnc(S(=O)(=O)NCCO)cc3N3CCC4(CC3)CC4)ccc2OCF)CCO1 [Compound 499] | ≤ 100
COc1ccc(NC(=O)c2cnc(S(=O)(=O)N[C@H](C)CO)cc2N2CCC3(CC2)CC3)nc1N1CCO[C@H](C)C1 [Compound 320] | ≤ 100
O=C(Nc1ccc([N+](=O)[O-])c(N2CCC(F)CC2)n1)c1ccc(NS(=O)(=O)CCO)cc1N1CCC2(CC1)CC2 [Compound 73] | ≤ 100
O=C(Nc1ccc(OCF)c(N2CCC(F)CC2)n1)c1ccc(NS(=O)(=O)CCO)cc1N1CCC2(CC1)CC2 [Compound 425] | ≤ 100
C[C@H]1CN(c2nc(NC(=O)c3cnc(NS(=O)(=O)CCO)cc3N3CCC4(CC3)CC4)ccc2OCF)CCO1 [Compound 483] | ≤ 100

Structure (SMILES) | IC50 [nM]
C[C@@H]1CN(c2nc(NC(=O)c3ccc(S(=O)(=O)N[C@@H](C)CO)cc3N3CCC4(CC3)CC4)ccc2[N+](=O)[O-])CCO1 [Compound 95] | ≤ 100
COc1ccc(C(=O)Nc2cnc(S(=O)(=O)NCCO)cc2N2CCC3(CC2)CC3)nc1N1CC(F)(F)C1 [Compound 372] | ≤ 100
CSc1ccc(NC(=O)c2ccc(NS(=O)(=O)[C@@H](C)CO)cc2N2CCC3(CC2)CC3)nc1N1CCO[C@H](C)C1 [Compound 607] | ≤ 100
C[C@H]1CN(c2cc(NC(=O)c3ccc(S(=O)(=O)NCCO)cc3N3CCC4(CC3)CC4)ccc2[N+](=O)[O-])CCO1 [Compound 19] | ≤ 100
CSc1ccc(NC(=O)c2ccc(NS(=O)(=O)CCO)cc2N2CCC3(CC2)CC3)cc1N1CCC2(CC2)C1 [Compound 582] | ≤ 100
CSc1ccc(NC(=O)c2ccc(NS(=O)(=O)[C@H](C)CO)cc2N2CCC3(CC2)CC3)nc1N1CCO[C@H](C)C1 [Compound 608] | ≤ 100
C[C@@H](CO)S(=O)(=O)Nc1cc(N2CCC3(CC2)CC3)c(NC(=O)c2ccc([N+](=O)[O-])c(N3CCC(F)(F)CC3)n2)cn1 [Compound 237] | ≤ 100
O=C(Nc1ccc([N+](=O)[O-])c(N2CCOCC2)n1)c1ccc(S(=O)(=O)NCCO)cc1N1CCC2(CC1)CC2 [Compound 92] | ≤ 100
CC1(F)CCN(c2nc(NC(=O)c3cnc(S(=O)(=O)NCCO)cc3N3CCC4(CC3)CC4)ccc2OCF)C1 (centres unmarked) [Compound 504] | ≤ 100
CC1(F)CCN(c2cc(C(=O)Nc3ccc(NS(=O)(=O)CCO)cc3N3CCC4(CC3)CC4)ccc2[N+](=O)[O-])C1 (centres unmarked) [Compound 40] | ≤ 100
COc1ccc(C(=O)Nc2ccc(NS(=O)(=O)CCO)cc2N2CCC3(CC2)CC3)nc1N1CC2CC2C1 (centres unmarked) [Compound 330] | ≤ 100
C[C@@H]1CN(c2cc(NC(=O)c3cnc(S(=O)(=O)NCCO)cc3N3CCC4(CC3)CC4)ccc2OCF)CCO1 [Compound 466] | ≤ 100
COc1ccc(NC(=O)c2cnc(NS(=O)(=O)CCO)cc2N2CCC3(CC2)CC3)nc1NC(C)(C)CO [Compound 299] | ≤ 100
O=C(Nc1ccc(OCF)c(OC2CCC2)n1)c1cnc(S(=O)(=O)NCCO)cc1N1CCC2(CC1)CC2 [Compound 503] | ≤ 100
O=C(Nc1ccc([N+](=O)[O-])c(OCCC(F)(F)F)n1)c1ccc(NS(=O)(=O)CCO)cc1N1CCC2(CC1)CC2 [Compound 69] | ≤ 100
O=C(Nc1ccc(NS(=O)(=O)CCO)cc1N1CCC2(CC1)CC2)c1ccc(OCF)c(OC2CCC2)n1 [Compound 551] | ≤ 100
O=C(Nc1ccc(S(=O)(=O)NCCO)cc1N1CCC2(CC1)CC2)c1ccc([N+](=O)[O-])c(N2CCC3(CC3)C2)n1 [Compound 182] | 100 to 500
CSc1ccc(NC(=O)c2cnc(NS(=O)(=O)CCO)cc2N2CCC3(CC2)CC3)nc1N1CC(F)(F)C1 [Compound 628] | ≤ 100
C[C@H](CO)NS(=O)(=O)c1ccc(C(=O)Nc2ccc([N+](=O)[O-])c(N3CCO[C@H](C)C3)n2)c(N2CCC3(CC2)CC3)c1 [Compound 96] | ≤ 100
O=C(Nc1ccc([N+](=O)[O-])c(N2CCC3(CC3)C2)c1)c1ccc(S(=O)(=O)NCCO)cc1N1CCC2(CC1)CC2 [Compound 22] | ≤ 100
O=C(Nc1ccc([N+](=O)[O-])c(N2CCC(F)(F)CC2)c1)c1ccc(S(=O)(=O)NCCO)cc1N1CCC2(CC1)CC2 [Compound 17] | ≤ 100

From patent US20260158017A1, “KIF18A INHIBITOR” (WIGEN BIOMEDICINE TECHNOLOGY (SHANGHAI) CO., LTD., priority 2021, published 2026)
